pIC50: −log10 of the molar value. Where two headings read alike, the source gives them in different places. No end group written: not given here.
Assays:
DM6 cells expressing TMC = test: processing and presentation: T cells co-cultured with DM6 expressing tandem mini-gene constructs (51Cr release, IFN-γ ELISA); type: cell-based, human; conditions: for neoantigen processing and presentation (cytotoxic activity, IFN-γ production): DM6 expressing AAS-/MUT-encoding mini-gene construct
Excerpt: As illustrated in FIG. 9 and FIG. 10, to determine whether vaccine-induced T cells could recognize naturally processed antigen, the melanoma tumor cell line DM6 was transduced with a multi-mini-gene construct encoding mutated (MUT) or wild-type (WT) sequences of peptides incorporated into a vaccine. FIG. 9 illustrates that each minigene consists of 21 aa encoding either the MUT or WT sequences. A scheme depicting minigene construct characteristics and a representative MUT 21-mer aa sequence encoded in construct is shown. Vaccine-induced T cells, specific for AKAP13 containing the Q285K mutation, were incubated with MUT or WT expressing DM6 cells, supernatants collected after 24 h of incubation, and IFN-γ produced by T cells was measured in supernatants by ELISA (FIG. 10).
Tandem mini-gene constructs (TMC) were used for evaluating processing and presentation of neoantigens. All constructs were 19-21-mers encoding AAS- or WT-sequences for peptides included in vaccine. No spacers are present between sequences. A ubiquitination signal and two mini-gene controls (encoding G280 and WNV SVG9 peptides) were included to monitor processing and presentation. The amino acid sequence of a 21-mer encoding TMEM48 F169L is shown with mutated amino acid residue underlined. TMC also encoded the West Nile Virus (WNV) SVG9 (McMurtrey, C. P., et al., P.N.A.S., 105, 2981-2986, 2008) and melanoma G280 (Cox, A. L., et al., Science, 264, 716-719, 1994) antigenic determinants as controls (Table 6).
TMC were cloned into pMX (GFP+), expressed as retrovirus and used to transfect the HLA-A*02:01+ melanoma lines DM6 (Darrow, T. L., et al., J. Immunol., 142, 3329-3335, 1989) or A375 (obtained from ATCC and mycoplasma free). TMC expressing cells were selected by sorting for GFP+ cells expressing cell surface HLA-A*02:01/SVG9 peptide complexes as detected by a T cell receptor mimic (TCRm) monoclonal antibody (Kim S., et al., J. Immunol., 184, 4423-4430, 2010). AAS- and WT-TMC reactivity with the HLA-A*02:01/SVG9 peptide complex specific TCRm monoclonal antibody validated expression of the mini-gene constructs. […] Results are shown for parental DM6 (shaded histogram) and DM6 cells expressing AAS—(dashed line) and WT (solid line) TMC constructs. A representative experiment of four performed is shown.
DM6 cells expressing TMC were labeled with 25μCi ^51Cr for 1 h, washed and tested as targets in a standard 4 h assay using neoantigen-specific T cells as effectors (Carreno B. M. et al. 2012 J Immunol 188, 5839). DM6 cells expressing AAS—(closed rectangles) or WT—(closed circles) TMC were co-cultured with neoantigen-specific T cells at a 1:1 ratio, supernatants harvest at 16 h and IFN-γ production evaluated by ELISA as described (Carreno, B. M., et al., J Immunol., 188, 58395849, […]; plots in FIG. 38). Open triangles represent lysis obtained with parental DM6 cells. Percent specific lysis of triplicates (mean+standard deviation) is shown for each E:T ratio; spontaneous lysis was <5%. A representative experiment of two independent evaluations is shown.
FIG. 39 illustrates that neoantigen-specific CD8 T cells were co-cultured with DM6 expressing AAS- or WT-encoding TMC for 20 h and IFN-γ production determined by ELISA. T cells cultured with parental DM6 cells are indicated as media. Mean values+/−SD of duplicates are shown. Results are representative of 2 experiments performed. […] None of the neoantigen-specific T cells recognized WT-encoding TMC (FIGS. 38 and 39). Based on these findings and the immune monitoring results (FIG. 31), the nine neoantigens identified in this study fall into three distinct antigenic determinant categories (Sercarz, E. E., et al., Annu. Rev. Imunol., 11, 729-766, 1993; Assarsson, E., et al., J. Immunol., 178, 7890-7901, 2007).

HLA-A*02:01 = target: T1, HLA-A*02:01 (Homo sapiens, UniProt P04439, D140Y/D185E/D98H/E176V/E277Q/G131W/G231S/I119V/I121R/I166T/I218V/L300P/L318F/N151K/N90K/P208A/P217A/Q86G/Q94H/R138H/R169H/T345S); test: fluorescence polarization-based competitive peptide binding assay; conditions: for IC50: fluorescence polarization-based competitive peptide-binding assay, high affinity log(IC50; nM) <3.7, read-out: Experimental Affinity log(IC50) (converted)
T1 construct: purchased Pure Protein, L.L.C

Sequence | Recognition of processed antigen (DM6 cells expressing TMC) | neoantigen processing and presentation (cytotoxic activity, IFN-γ production) (DM6 cells expressing TMC) | IC50 (HLA-A*02:01) [nM] | neoantigen processing and presentation (cytotoxic activity, IFN-γ production) (DM6 cells expressing TMC; listed as AKAP13 (Q285K)) | neoantigen processing and presentation (cytotoxic activity, IFN-γ production) (DM6 cells expressing TMC; listed as AKAP13 Q285K) | pIC50 (HLA-A*02:01)
CLNEYHLFL | Yes | processed and presented | 1230 | – | – | –
MLGEQLFPL | Yes | processed and presented | 224 | – | – | –
KLMNIQQKL | Yes | – | – | processed, presented and recognized by vaccine-induced T cells | processed and presented | 5.93
QLSCISTYV | No | not processed and presented | 1260 | – | – | –
IILVAVPHV | – | processed and presented | – | – | – | –

— US20170202939A1, “PERSONALIZED CANCER VACCINES AND METHODS THEREFOR” (Washington University, priority 2014, published 2017)
